# Source: PMC7534330, “UHPLC-MS/MS method for pharmacokinetic and bioavailability determination of five bioactive components in raw and various processed products of Polygala tenuifolia in rat plasma” (Pharmaceutical Biology, 2020)
# How the values were obtained:
# [1] = Pharmacokinetics and absolute bioavailability of five compounds after oral and i.v. administration (UHPLC-MS/MS); assay type: in vivo; conditions: rat; for MRT last: read-out: MRT0-t; for half-life: read-out: t1/2 (converted); for AUCΔ0-t (dose-normalized) / AUCΔ0-∞ (dose-normalized) / CΔmax (dose-normalized): dose-normalized value
# Method: (§1) A Thermo Hypersil Gold C18 column (3.0 × 100 mm, i.d.; 3 μm) was used for chromatographic separation. An aqueous 10 mM ammonium acetate solution (A) and acetonitrile (B) were selected as the mobile phase components. The optimal gradient program involved the following steps: 5% B (0–1 min), changing to 85% B (1–3.5 min), 85% B (3.5–4.0 min), changing to 5% B (4.0–4.1 min) and 5% B (4.1–5.0 min). The flow rate was set to 0.4 mL/min, the autosampler was maintained at 4 °C and the injection volume was 5 μL.
# (§2) UHPLC-MS/MS was conducted by an Applied Biosystems (AB) Sciex Exion LC system (Foster City, CA) connected to a 6500 + triple quad tandem mass spectrometer with an electrospray ionization source. All detection and quantifications were carried out in positive multiple reaction monitoring (MRM) mode. The optimized parameters were programmed as follows: ion source temperature, 500 °C; curtain gas pressure, 30 kPa; ion source gas 1 pressure, 55 kPa; ion source gas 2 pressure, 55 kPa; and ion spray voltage, […]. The chemical structures and ion mass spectra of targeted compounds are shown in Figure 1. The precursor ion and product ion were m/z 517.1 → 174.9 for A5, m/z 547.0 → 204.9 for A6, m/z 753.2 → 205.2 for DSS, m/z 681.3 → 443.3 for TFSA, m/z 236.8 → 103.2 for TMCA and m/z 136.9 → 92.9 for IS. All data were acquired by using AB Sciex Analyst software (version 1.6.3).
# (§3) After thawing the frozen blood samples at room temperature, a 100 μL aliquot of plasma was spiked with 50 μL of the IS working solution in 2 mL EP tubes, and 750 μL of methanol was added into each of the tubes. Then, these tubes were mixed on a multi-tube Vortexer for 0.5 min before centrifugation at 11,800×g for 10 min. Finally, 200 μL of the obtained supernatant was transferred to a fresh autosampler vial, and then 5 μL of the sample was injected for analysis.
# The SD rats were randomly divided into oral and i.v. groups for A5, A6, DSS, TFSA and TMCA administration (n = 6 in each group). The oral doses of A5, A6, DSS, TFSA and TMCA groups were 7.40, 11.60, 16.00, 50.00 and 3.11 mg/kg, respectively, and the corresponding i.v. doses were 0.74, 1.16, 1.60, 5.00 and 0.31 mg/kg, respectively. Blood samples were collected from the suborbital vein into heparinized tubes before and 0, 0.083, 0.17, 0.25, 0.5, 1, 2, 3, 5 and 8 h after administration. The treatment method of blood samples was the same as that mentioned above.
# (§4) The elementary pharmacokinetic parameters of plasma samples were analyzed by DAS 2.0 pharmacokinetic software. One-way analysis of variance (ANOVA) was used for statistical comparison for pharmacokinetic and interaction studies. A p-value < 0.05 indicated a significant difference. The main parameters considered were as follows: AUC0–∞ (the area under the blood concentration-time curve from zero to infinity initial plasma concentration), MRT (the mean residence time), Cmax (peak plasma concentration) and Tmax (time to reach Cmax for oral dose), t1/2 (elimination half-life) (He et al. [2015]). The absolute bioavailability (F) was evaluated as follows: F(%)=(AUCoral×Dosei.v.)/(AUCi.v.×Doseoral)×100%
# [2] = Pharmacokinetics of five components in rat plasma after oral administration of RPT, LPT and HPT extracts (UHPLC-MS/MS); conditions: male, SD, in vivo, 1.9 g/kg, rat plasma, mean ± SD; for AUC(0-t): n = 6, read-out: AUC0-t; for AUC(0-inf): n = 6, read-out: AUC0-∞; for Cmax: n = 6, read-out: Cmax; for MRT last: n = 6, read-out: MRT0-t; for Tmax: n = 6, read-out: Tmax; for half-life: n = 6, read-out: t1/2 (converted)
# Method: as §1, §2, §3
# Male SD rats were randomly divided into four groups (n = 6 in each group), including the RPT group, LPT group, HPT group and control group. All oral administration samples were mixed with 0.5% CMC-Na (w/v) and then given to rats at a dose equivalent to 1.9 g/kg of RPT extract. The control group was orally treatment with equal volume of 0.5% CMC-Na solution. After a single administration, all blood samples were collected from the orbital vein into heparinized centrifuge tubes before administration (0 h) and at 0.083, 0.17, 0.25, 0.5, 0.75, 1, 1.5, 2, 3, 5, 8 and 12 h after administration and then centrifuged at 4 °C and 11,800×g for 10 min. The separated supernatant samples were preserved at −80 °C until they were measured.
# as §4
# [3] = SD, in vivo, iv, i.v. administration, A5 0.74, A6 1.16, DSS 1.60, TFSA 5.00, TMCA 0.31 mg/kg, n = 6
# [4] = SD, in vivo, oral administration of pure compound, A5 7.40, A6 11.60, DSS 16.00, TFSA 50.00, TMCA 3.11 mg/kg, n = 6
# [5] = oral HPT extract equivalent to 1.9 g/kg of RPT extract
# [6] = oral LPT extract equivalent to 1.9 g/kg of RPT extract
smiles,measurement,setting,value
"COc1cc(C=CC(=O)O)cc(OC)c1OC [TMCA, 3,4,5-trimethoxycinnamic acid]",AUC(0-inf),[1]; [3],226 ± 61.2 ng·h/mL
same,AUC(0-t),[1]; [3],225 ± 60.9 ng·h/mL
same,Cmax,[1]; [3],1470 ± 238 ng/mL
same,MRT last,[1]; [3],15 ± 3.6 min
same,half-life,[1]; [3],37.2 ± 7.8 min
same,AUC(0-inf),[1]; [4],971 ± 59.8 ng·h/mL
same,AUC(0-t),[1]; [4],968 ± 58.4 ng·h/mL
same,Cmax,[1]; [4],1110 ± 90.5 ng/mL
same,MRT last,[1]; [4],40.8 ± 1.8 min
same,Tmax,"[1]; SD, in vivo, oral administration of pure compound, A5 7.40, A6 11.60, DSS 16.00, TFSA 50.00, TMCA 3.11 mg/kg, n = 6, read-out: Tmax",15 min
same,half-life,[1]; [4],39 ± 1.2 min
same,AUCΔ0-t (dose-normalized),[1]; i.v. administration,725.52 ± 196.42 ng·h/mL
same,AUCΔ0-∞ (dose-normalized),[1]; i.v. administration,730.65 ± 197.45 ng·h/mL
same,CΔmax (dose-normalized),[1]; i.v. administration,4750.32 ± 768.32 ng/mL
same,AUCΔ0-t (dose-normalized),[1]; oral administration,311.40 ± 18.78 ng·h/mL
same,AUCΔ0-∞ (dose-normalized),[1]; oral administration,312.32 ± 19.23 ng·h/mL
same,CΔmax (dose-normalized),[1]; oral administration,356.33 ± 29.10 ng/mL
same,"F, absolute bioavailability",[1]; oral vs i.v. (i.v. dose 1/10 of oral dose),42.91 % of dose
same,AUC(0-t),[2]; [5],124 ± 41.3 ng·h/mL
same,AUC(0-inf),[2]; [5],184 ± 137 ng·h/mL
same,Cmax,[2]; [5],63.2 ± 14.2 ng/mL
same,MRT last,[2]; [5],251 ± 54.6 min
same,Tmax,[2]; [5],4.2 ± 1.2 min
same,half-life,[2]; [5],224 ± 140 min
same,AUC(0-t),[2]; [6],135 ± 33.4 ng·h/mL
same,AUC(0-inf),[2]; [6],173 ± 40.4 ng·h/mL
same,Cmax,[2]; [6],80.7 ± 11.1 ng/mL
same,MRT last,[2]; [6],214 ± 15 min
same,Tmax,[2]; [6],6 ± 2.4 min
same,half-life,[2]; [6],409 ± 109 min
same,AUC(0-t),[2]; oral RPT extract 1.9 g/kg,91.7 ± 29.1 ng·h/mL
same,AUC(0-inf),[2]; oral RPT extract 1.9 g/kg,132 ± 33.4 ng·h/mL
same,Cmax,[2]; oral RPT extract 1.9 g/kg,38.8 ± 13.8 ng/mL
same,MRT last,[2]; oral RPT extract 1.9 g/kg,262 ± 31.8 min
same,Tmax,[2]; oral RPT extract 1.9 g/kg,7.8 ± 3 min
same,half-life,[2]; oral RPT extract 1.9 g/kg,416 ± 178 min
